In US9353104B2, “Substituted pyridizinone derivatives as PDE10 inhibitors” (priority 2013, dated 2016) one finds Ki data, which are given here for 28 compounds.

Chain of human PDE10A2 (Q9Y233 267-1055): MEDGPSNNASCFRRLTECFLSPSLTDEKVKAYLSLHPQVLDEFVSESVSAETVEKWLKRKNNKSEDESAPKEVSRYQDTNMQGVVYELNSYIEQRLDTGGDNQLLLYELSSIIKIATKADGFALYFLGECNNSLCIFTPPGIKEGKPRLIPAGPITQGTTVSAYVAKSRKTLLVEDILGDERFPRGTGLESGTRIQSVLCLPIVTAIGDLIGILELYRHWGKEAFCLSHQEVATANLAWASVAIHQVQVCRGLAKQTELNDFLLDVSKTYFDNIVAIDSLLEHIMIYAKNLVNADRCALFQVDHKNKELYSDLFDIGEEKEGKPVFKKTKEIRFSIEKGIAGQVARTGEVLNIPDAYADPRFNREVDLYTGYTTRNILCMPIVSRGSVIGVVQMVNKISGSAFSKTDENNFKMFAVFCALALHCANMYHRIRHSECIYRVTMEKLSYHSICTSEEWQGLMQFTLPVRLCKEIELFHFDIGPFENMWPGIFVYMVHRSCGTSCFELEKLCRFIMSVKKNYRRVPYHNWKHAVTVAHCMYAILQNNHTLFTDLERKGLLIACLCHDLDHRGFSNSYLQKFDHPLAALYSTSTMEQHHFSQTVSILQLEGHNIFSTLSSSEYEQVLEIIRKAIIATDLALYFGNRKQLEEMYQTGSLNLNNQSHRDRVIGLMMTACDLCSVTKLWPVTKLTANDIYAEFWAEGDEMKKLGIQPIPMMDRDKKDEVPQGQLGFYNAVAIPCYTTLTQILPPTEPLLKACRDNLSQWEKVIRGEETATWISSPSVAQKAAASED

This assay has as its target human PDE10A2 (Homo sapiens (Human), UniProt Q9Y233). Put plainly: PDE10 fluorescence polarization (IMAP FP) inhibition assay. In kind it is biochemical. To be noted: human PDE10A2 lysate, FAM-labeled cAMP 50 nM, room temperature; read-out: PDE10A Ki. The procedure, abridged: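 Cytoplasmic lysate of AD293 cells transiently expressing human PDE10A2, diluted for ~20% conversion of 50 nM FAM-cAMP, in 10 mM Tris pH 7.2, 10 mM MgCl2, 1 mM DTT, 0.01% Tween-20. Reaction 30 min at room temperature, read by IMAP fluorescence polarization; 10-point 3-fold titrations, 1% DMSO as 0%, reference PDE10 inhibitor at 5,000× Ki as 100%.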
(Polarisation of emitted light reports the rotation of a fluorescent probe.)
As for `Cc1cccc([C@H]2C[C@@H]2COc2cc(NCc3cnn(C)c3)c(=O)n(C)n2)n1` [Example 117, 2-methyl-4-((1-methyl-1H-pyrazol-4-yl)methyl-amino)-6-(((1S,2S)-2-(6-methylpyridin-2-yl)cyclopropyl)methoxy) pyridazin-3(2H)-one], the Ki (as a rule, the equilibrium dissociation constant of an inhibitor or competing ligand from its target) was determined as 0.089 nM.

Consider `Cc1cccc([C@H]2C[C@@H]2COc2cc(NCc3ncc(C)s3)c(=O)n(C)n2)n1` [Example 118, 2-methyl-6-(((1S,2S)-2-(6-methylpyridin-2-yl)cyclo-propyl)methoxy)-4-((5-methylthiazol-2-yl)methyl-amino)pyridazin-3(2H)one], for which the Ki turned out to be 0.037 nM.

In the case of `Cc1cccc([C@H]2C[C@@H]2COc2cc(NCc3ccccn3)c(=O)n(C)n2)n1` [Example 119, 2-methyl-6-(((1S,2S)-2-(6-methylpyridin-2-yl)cyclo-propyl)methoxy)-4-(pyridin-2-ylmethylamino-)pyridazin-3(2H)-one], the Ki was found to be 3.4 nM.

For the compound `Cc1cccc([C@H]2C[C@@H]2COc2cc(NCc3cccnc3)c(=O)n(C)n2)n1` [Example 120, 2-methyl-6-(((1S,2S)-2-(6-methylpyridin-2-yl)cyclo-propyl)methoxy)-4-(pyridin-3-ylmethylamino-)pyridazin-3(2H)-one], the Ki was 1.3 nM.

As to `Cc1cc(CNc2cc(OC[C@H]3C[C@@H]3c3ccc4c(n3)CCC4)nn(C)c2=O)n(C)n1` [Example 121, 6-(((1S,2S)-2-(6,7-dihydro-5H-cyclopenta-[b]pyridin-2-yl)cyclop-ropyl)methoxy)-4-((1,3-dimethyl-1H-pyrazol-5-yl)methylamino)-2-methylpyridazin-3(2H)one], the inhibition constant Ki worked out at 0.001 nM.

For `Cc1cnc(CNc2cc(OC[C@H]3C[C@@H]3c3ccc4c(n3)CCC4)nn(C)c2=O)s1` [Example 124, 6-(((1S,2S)-2-(6,7-dihydro-5H-cyclopenta-[b]pyridin-2-yl)cyclopropyl)methoxy)-2-methy-4-((5-methylthiazol-2-yl)-methylamino-)pyridazin-3(2H)-one], the Ki is 0.002 nM.

For `Cn1cc(CNc2cc(OC[C@H]3C[C@@H]3c3ccc4c(n3)CCC4)nn(C)c2=O)cn1` [Example 125, 6-(((1S,2S)-2-(6,7-dihydro-5H-cyclopenta[b]pyridin-2-1)cyclopropyl)methoxy)-2-methyl-4-((1-methyl-1H-pyrazol-4-yl)methylamino-)pyridazin-3(2H)-one], the Ki came out at 0.005 nM.

For the compound `COc1ccc([C@H]2C[C@@H]2COc2cc(NCc3nc(C)c(C)s3)c(=O)n(C)n2)nc1` [Example 126, 4-((4,5-dimethylthiazol-2-yl)methylamino)-6-(((1S,2S)-2-(5-methoxy-pyridin-2-yl)cyclopropyl-)methoxy)-2-methyl-pyridazin-3(2H)-one], the inhibitory constant (Ki) amounted to 0.048 nM.

As for `Cc1ccc([C@H]2C[C@@H]2COc2cc(NCc3nc(C)c(C)s3)c(=O)n(C)n2)nc1` [Example 127, 4-((4,5-dimethylthiazol-2-yl)methylamino)-2-methyl-6-(((1S,2S)-2-(5-methyl-pyridin-2-yl)cyclopropyl- )methoxy)pyridazin-3(2H)-one], the Ki came out at 0.045 nM.

As to `Cc1nc(CNc2cc(OC[C@H]3C[C@@H]3c3ccn(C)n3)nn(C)c2=O)sc1C` [Example 128, 4-((4,5-dimethylthiazol-2-yl)methylamino)-2-methyl-6-(((1S,2S)-2-(1-methyl-1H-pyrazol-3-yl)cyclo-propyl)methoxy)pyridazin-3(2H)-one], the Ki turned out to be 0.368 nM.

For the compound `Cc1cc(CNc2cc(OC[C@H]3C[C@@H]3c3ccn(C)n3)nn(C)c2=O)nn1C` [Example 129, 4-((1,5-dimethyl-1H-pyrazol-3-yl)methylamino)-2-methyl-6-(((1S,2S)-2-(1-methyl-1H-pyrazol-3-yl)cyclopropyl)methoxy) pyridazin-3(2H)-one], the inhibition constant Ki worked out at 3.6 nM.

Turning to `COc1ccc([C@H]2C[C@@H]2COc2cc(NCc3ncc(C)s3)c(=O)n(C)n2)nc1` [Example 130, 6-(((1S,2S)-2-(5-methoxy-pyridin-2-yl)cyclopropyl-)methoxy)-2-methyl-4-((5-methyl-thiazol-2-yl)-methylamino-)pyridazin-3(2H)-one], the inhibition constant (Ki) stood at 0.004 nM.

In the case of `COc1ccc([C@H]2C[C@@H]2COc2cc(NCc3cnn(C)c3)c(=O)n(C)n2)nc1` [Example 131, 6-(((1S,2S)-2-(5-methoxy-pyridin-2-yl)cyclopropyl-)methoxy)-2-methyl-4-((1-methyl-1H-pyrazol-4-yl)methylamino)pyridazin-3(2H)-one], the Ki was found to be 0.014 nM.

As to `COc1ccc([C@H]2C[C@@H]2COc2cc(NCc3cc(C)nn3C)c(=O)n(C)n2)nc1` [Example 132, 4-((1,3-dimethyl-1H-pyrazol-5-yl)methyl-amino)-6-(((1S,2S)-2-(5-methoxypyridin-2-yl)-cyclopropyl)methoxy)-2-methylpyridazin-3(2H)one], the inhibitory constant (Ki) is 0.002 nM.

As to `COc1ccc(CNc2cc(OC[C@H]3C[C@@H]3c3ccc(OC)cn3)nn(C)c2=O)cc1` [Example 133, 4-(4-methoxybenzyl-amino)-6-(((1S,2S)-2-(5-methoxypyridin-2-yl)-cyclopropyl)methoxy)-2-methylpyridazin-3(2H)one], the inhibition constant (Ki) was 0.021 nM.

For `COc1ccc([C@H]2C[C@@H]2COc2cc(NCc3ccccn3)c(=O)n(C)n2)nc1` [Example 134, 6-(((1S,2S)-2-(5-methoxy-pyridin-2-yl)-cyclopropyl-)methoxy)-2-methyl-4-(pyridin-2-yl-methyl-amino)pyridazin-3(2H)one], the inhibition constant (Ki) is 0.706 nM.

On to `COc1ccc([C@H]2C[C@@H]2COc2cc(NCc3cccnc3)c(=O)n(C)n2)nc1` [Example 135, 6-(((1S,2S)-2-(5-methoxy-pyridin-2-yl)cyclopropyl-)methoxy)-2-methyl-4-(pyridin-3-ylmethylamino-)pyridazin-3(2H)-one], for which the inhibition constant (Ki) came to 0.261 nM.

Consider `COc1ccc([C@H]2C[C@@H]2COc2cc(NCCc3nccs3)c(=O)n(C)n2)nc1` [Example 136, 6-(((1S,2S)-2-(5-methoxy-pyridin-2-yl)cyclopropyl-)methoxy)-2-methyl-4-(2-(thiazol-2-yl)ethylamino-)pyridazin-3(2H)-one], for which the Ki was found to be 10.3 nM.

Take `CCc1cc(CNc2cc(OC[C@H]3C[C@@H]3c3ccc(OC)cn3)nn(C)c2=O)n(C)n1` [Example 137, 4-((3-ethyl-1-methyl-1H-pyrazol-5-yl)methylamino)-6-(((1S,2S)-2-(5-methoxypyridin-2-yl)cyclopropyl)methoxy)-2-methylpyridazin-3(2H)-one]: the Ki was 0.058 nM.

Consider `CCc1cc(CNc2cc(OC[C@H]3C[C@@H]3c3ccc(C)cn3)nn(C)c2=O)n(C)n1` [Example 138, 4-((3-ethyl-1-methyl-1H-pyrazol-5-yl)methylamino)-2-methyl-6-(((1S,2S)-2-(5-methylpyridin-2-yl)cyclopropyl)methoxy) pyridazin-3(2H)-one], for which the Ki stood at 0.027 nM.

On to `CCc1cc(CNc2cc(OC[C@H]3C[C@@H]3c3ccn(C)n3)nn(C)c2=O)n(C)n1` [Example 139, 4-((3-ethyl-1-methyl-1H-pyrazol-5-yl)methylamino)-2-methyl-6-(((1S,2S)-2-(1-methyl-1H-pyrazol-3-yl)cyclopropyl)methoxy) pyridazin-3(2H)-one], for which the inhibitory constant (Ki) was found to be 0.295 nM.

As to `COc1ccc([C@H]2C[C@@H]2COc2nn(C)c(=O)c(NCc3nnc(C)s3)c2Br)nc1` [Example 140, 5-bromo-6-(((1S,2S)-2-(5-methoxypyridin-2-yl)cyclopropyl)methoxy)-2-methyl-4-((5-methyl-1,3,4-thiadiazol-2-yl)methyl-amino)pyridazin-3(2H)-one], the Ki was 0.004 nM.

With `COc1ccc([C@H]2C[C@@H]2COc2nn(C)c(=O)c(NCc3nnc(C)s3)c2Cl)nc1` [Example 141, 5-chloro-6-(((1S,2S)-2-(5-methoxypyridin-2-yl)cyclopropyl)methoxy)-2-methyl-4-((5-methyl-1,3,4-thiadiazol-2-yl)methylamino)pyridazin-3(2H)-one], the Ki amounted to 0.004 nM.

Consider `COc1ccc(Cn2nc(OC[C@H]3C[C@@H]3c3ccc(OC)cn3)cc(NCc3nnc(C)s3)c2=O)cc1` [Example 142, 2-(4-methoxybenzyl)-6-(((1S,2S)-2-(5-methoxy-pyridin-2-yl)cyclopropyl-)methoxy)-4-((5-methyl-1,3,4-thiadiazol-2-yl)methyl-amino)pyridazin-3(2H)-one], for which the Ki turned out to be 75 nM.

In the case of `CCn1nc(OC[C@H]2C[C@@H]2c2ccc(OC)cn2)cc(NCc2nnc(C)s2)c1=O` [Example 144, 2-ethyl-6-(((1S,2S)-2-(5-methoxypyridin-2-yl)cyclopropyl)methoxy)-4-((5-methyl-1,3,4-thiadiazol-2-yl)methylamino)pyridazin-3(2H)-one], the inhibitory constant (Ki) is 0.032 nM.

For the compound `C#CCN(Cc1ccc(OC)cc1)c1cc(OC[C@H]2C[C@@H]2c2ccc(OC)cn2)nn(C)c1=O` [Example 145, 4-((4-methoxybenzyl)(prop-2-ynyl)amino)-6-(((1S,2S)-2-(5-methoxypyridin-2-yl)cyclopropyl)methoxy)-2-methylpyridazin-3(2H)-one], the inhibitory constant (Ki) turned out to be 7.9 nM.

In the case of `COc1ccc([C@H]2C[C@@H]2COc2cc(NCc3c[nH]nn3)c(=O)n(C)n2)nc1` [Example 146, 4-((1H-1,2,3-triazol-4-yl)methylamino)-6-(((1S,2S)-2-(5-methoxypyridin-2-yl)cyclopropyl)methoxy)-2-methylpyridazin-3(2H)-one], the inhibitory constant (Ki) was found to be 0.048 nM.

On to `COc1ccc([C@H]2C[C@@H]2COc2cc(NCc3cn(C)nn3)c(=O)n(C)n2)nc1` [Example 147, 6-(((1S,2S)-2-(5-methoxy-pyridin-2-yl)-cyclopropyl-)methoxy)-2-methyl-4-((1-methyl-1H-1,2,3-triazol-4-yl)methylamino)pyridazin-3(2H)-one], for which the inhibitory constant (Ki) worked out at 0.066 nM.
